Measured values: paper PMC5100569 (Nucleic Acids Research, 2016)

How the values were obtained:
saCodY [1] = biological target: T1, saCodY (Staphylococcus aureus, UniProt A7X1N2); experiment: surface plasmon resonance; format: binding
T1 sequence (A7X1N2 1-257): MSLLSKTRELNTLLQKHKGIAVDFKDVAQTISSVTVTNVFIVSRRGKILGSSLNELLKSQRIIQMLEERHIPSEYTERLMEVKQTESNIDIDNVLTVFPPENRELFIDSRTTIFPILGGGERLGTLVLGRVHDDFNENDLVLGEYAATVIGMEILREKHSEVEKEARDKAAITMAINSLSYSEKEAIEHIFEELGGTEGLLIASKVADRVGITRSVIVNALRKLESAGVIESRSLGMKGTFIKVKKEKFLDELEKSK

bcCodY = biological target: T2, bcCodY (Bacillus cereus, UniProt Q819X8); experiment: size-exclusion chromatography, change of oligomeric state; format: binding; details: 1 mM GTP, pH 8.0, no Ile
T2 sequence (Q819X8 1-259): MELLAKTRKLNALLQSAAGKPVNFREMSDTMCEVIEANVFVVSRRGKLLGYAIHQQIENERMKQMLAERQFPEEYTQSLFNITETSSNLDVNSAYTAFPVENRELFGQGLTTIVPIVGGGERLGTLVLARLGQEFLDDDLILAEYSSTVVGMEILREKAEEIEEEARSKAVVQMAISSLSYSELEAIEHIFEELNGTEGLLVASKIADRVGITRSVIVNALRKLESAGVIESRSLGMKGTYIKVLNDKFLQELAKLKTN

saCodY [2] = biological target: saCodY (Staphylococcus aureus, UniProt A7X1N2, H70A/K158A/K47A/R45A/S43A); experiment: biochemical
saCodY [3] = biological target: saCodY (Staphylococcus aureus, UniProt A7X1N2, E153A); experiment: biochemical
SEC = biological target: the molecule itself; experiment: SEC
crystal structure = biological target: the molecule itself; experiment: crystal structure
saCodY 3P5A = biological target: T3, saCodY 3P5A (Staphylococcus aureus, UniProt A7X1N2 1-257, S43A;R45A;K47A;H70A;K158A); experiment: EMSA
T3 sequence: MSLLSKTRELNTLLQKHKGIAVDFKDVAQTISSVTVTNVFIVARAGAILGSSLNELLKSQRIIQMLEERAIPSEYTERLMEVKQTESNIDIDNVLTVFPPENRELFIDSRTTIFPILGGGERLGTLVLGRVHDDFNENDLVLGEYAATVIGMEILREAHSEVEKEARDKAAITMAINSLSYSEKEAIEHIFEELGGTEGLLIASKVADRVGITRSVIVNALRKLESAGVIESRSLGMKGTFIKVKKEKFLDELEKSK

saCodY E153A = biological target: T4, saCodY E153A (Staphylococcus aureus, UniProt A7X1N2 1-257, E153A); experiment: EMSA
T4 sequence: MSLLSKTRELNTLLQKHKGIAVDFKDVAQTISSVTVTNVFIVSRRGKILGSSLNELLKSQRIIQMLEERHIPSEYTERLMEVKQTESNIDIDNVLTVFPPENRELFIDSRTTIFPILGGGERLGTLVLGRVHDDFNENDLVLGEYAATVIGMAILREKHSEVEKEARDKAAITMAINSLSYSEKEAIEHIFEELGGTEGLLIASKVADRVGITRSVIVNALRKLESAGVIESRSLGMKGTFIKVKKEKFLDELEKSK

In the case of `Nc1nc2c(ncn2[C@@H]2O[C@H](COP(=O)(O)OP(=O)(O)OP(=O)(O)O)[C@@H](O)[C@H]2O)c(=O)[nH]1` [GTP], the Kd (saCodY [1]) is reported as 2.26 mM, the “size-exclusion chromatography, change of oligomeric state” value (bcCodY) is reported as “after incubation of saCodY and bcCodY with GTP, the proteins eluted at much smaller sizes” and the Kd (saCodY [2]) is reported as 35 mM. The Kd (saCodY [3]) was 28 mM.

`Nc1nc2c(ncn2[C@@H]2O[C@H](COP(=O)(O)OP(=O)(O)O)[C@@H](O)[C@H]2O)c(=O)[nH]1` [GDP] gave a Kd (saCodY [1]) of 17 mM.

For `Nc1nc2c(ncn2[C@@H]2O[C@H](COP(=O)(O)O)[C@@H](O)[C@H]2O)c(=O)[nH]1` [GMP], the Kd (saCodY [1]) was 20 mM.

For `Nc1ncnc2c1ncn2[C@@H]1O[C@H](COP(=O)(O)OP(=O)(O)OP(=O)(O)O)[C@@H](O)[C@H]1O` [ATP], the Kd (saCodY [1]) was 19 mM.

B1: CodY from Staphylococcus aureus (saCodY), wild type (natural protein, UniProt A7X1N2 1-257, looked up)
chain: MSLLSKTRELNTLLQKHKGIAVDFKDVAQTISSVTVTNVFIVSRRGKILGSSLNELLKSQRIIQMLEERHIPSEYTERLMEVKQTESNIDIDNVLTVFPPENRELFIDSRTTIFPILGGGERLGTLVLGRVHDDFNENDLVLGEYAATVIGMEILREKHSEVEKEARDKAAITMAINSLSYSEKEAIEHIFEELGGTEGLLIASKVADRVGITRSVIVNALRKLESAGVIESRSLGMKGTFIKVKKEKFLDELEKSK
For B1, the “stoichiometry N” value (SEC) was 4 and the “stoichiometry N” value (crystal structure) was 2.

B2: CodY from Bacillus cereus (bcCodY), wild type (natural protein, UniProt Q819X8 1-259, looked up)
chain: MELLAKTRKLNALLQSAAGKPVNFREMSDTMCEVIEANVFVVSRRGKLLGYAIHQQIENERMKQMLAERQFPEEYTQSLFNITETSSNLDVNSAYTAFPVENRELFGQGLTTIVPIVGGGERLGTLVLARLGQEFLDDDLILAEYSSTVVGMEILREKAEEIEEEARSKAVVQMAISSLSYSELEAIEHIFEELNGTEGLLVASKIADRVGITRSVIVNALRKLESAGVIESRSLGMKGTYIKVLNDKFLQELAKLKTN
With B2 the “stoichiometry N” value (SEC) was 4.

B3: ilvB promoter 45-mer (dsDNA)
DNA 1: CAGGTGGCGTCATGCAAGTCCCTGAGAATTTAATTTAATTTATTT
DNA 2: AAATAAATTAAATTAAATTCTCAGGGACTTGCATGACGCCACCTC
Molecule B3 has a binding signal (saCodY 3P5A) of 3 fold Kd vs WT without GTP and a binding signal (saCodY E153A) of 1.7 fold Kd vs WT without GTP.
